Data on four compounds can be found in publication PMC5073051 (European journal of medicinal chemistry, 2016).

The subject of one series is MDA-MB-231 cells. In words: HGF-induced cell migration wound-healing assay. The note with it: Homo sapiens, MDA-MB-231, 24 h, read-out: Antimigratory activity IC50 ± SEM, MDA-MB-231, wound-healing assay, HGF 40 ng/mL, 24 h.
The target of series [1] is human placental glutathione S-transferase (GST). The settings on record: read-out: inhibition of human placental GST activity IC50; cited from earlier work.
Another series deals with OEC-M1 cells. The note with it: read-out: cytotoxicity IC50, OEC-M1 oral cancer cells; cited from earlier work.
The test system of the next series is SAS cells. The note with it: read-out: cytotoxicity IC50, SAS oral cancer cells; cited from earlier work.

As for `COc1cc(/C=C/C=N/CCc2ccc(O)cc2)cc(OC)c1O` [Compound 11], the IC50 with MDA-MB-231 cells is below 5 µM. With `COc1cc(/C=C/COC(=O)/C=C/c2ccc(O)c(OC)c2)ccc1O` [Compound 40, coniferyl ferulate], the IC50 in series [1] was 0.3 µM.

As for `O=C(/C=C/c1ccc(O)cc1)OCCc1ccc(O)cc1` [Compound 6, Tyrosol coumarate], the IC50 in the series with OEC-M1 cells and in the series with SAS cells was above 100 µM each time. As for `COc1cc(/C=C/C(=O)OCCc2ccc(O)cc2)ccc1O` [Compound 5, Tyrosol ferulate], the IC50 in the series with OEC-M1 cells and in the series with SAS cells was above 100 µM in each case.
